Structures are written as SMILES. Structures can show the parent of a compound that is named as a salt.

Broadly, the LD50 is the dose expected to kill half of the subjects tested.

One series relates to secretion in the stomach. The experiment in a line: Effect on the secretion in the stomach of narcotized rats (determination of the pH-value). It counts as in vivo. The settings on record: for inhibition in vivo at 300 mg/kg: po, dosage 300 mg/kg p.o., narcotized rats, acetylcholine control = 100. As for the experimental part:
3. Effect on the secretion in the stomach of narcotized rats (determinationof the pH-value)
The test is performed on narcotized (urethane narcosis) male rats, having a body-weight of 200-230 g. For this purpose N/4000-sodium hydroxide solution is perfused into the stomachs of rats at a rate of 1 ml per minute by means of a cardia- and pylorus-catheter. The pH value of the perfusate, which leaves the stomach by way of the pylorus catheter, is determined by means of a one-rod measuring system, and is continuously registered.
In order to perform a comparative control test, after a pre-run period of 20 minutes, 10 mg per kg of acetylcholine are applied intraperitoneously. The resulting comparative control value is defined as being 100.
For evaluation, the surface-integral is calculated numerically with the aid of the rule of Simpson. The degree of inhibition of the secretion is calculated from the difference between the surfaces before and after the application of the test compound.

For series [1], the system named is indomethacine induced ulcers. The experiment in a line: Effectiveness against indomethacine-induced ulcers in the rat. Format: in vivo, rats. The settings on record: for inhibition in vivo at 150 mg/kg: dosage 150 mg/kg p.o.; for inhibition in vivo at 75 mg/kg: dosage 75 mg/kg p.o.; for inhibition in vivo at 68 mg/kg: dosage 68 mg/kg p.o. As for the experimental part: 2. Effectiveness against indomethacineinduced ulcers in the rate (Modified test procedure according to
To at least 6 male rats, having a body-weight of from 170 to 220 g, dosages of the test compounds are administered orally in an amount of 0.5 ml of a suspension medium per 100 g animal body-weight. The animals of the blank control group receive the corresponding amount by volume of the suspension medium only. One hour after application of the test compounds, a dosage of 20 mg per kg of indomethacine contained in an amount of 0.5 ml of a suspension per 100 g animal body-weight, are orally applied to each animal for producing ulcers. 24 hours after the application of indomethacine, the animals are sacrificed.
The mean value and the standard deviation of the numbers of ulcers is calculated, and subsequently the inhibiting activity of the test compounds and a standard compound are calculated as percent inhibition compared with the blank control group.

A short description of another series: in vivo. The settings on record: mouse, po, single dose p.o., unfed NMRI mice, 7 days, read-out: Toxicity LD50 p.o. As for the experimental part: The acute 7-day-toxicity is determined after a single application per os in white NMRI-mice which had not been fed. The calculation of the LD50 is carried out by probitanalysis by means of electronic data processing (see L. Cavalli-Sforza, Gustav Fischer-Verlag, Stuttgart (1964), Grundbegriffe der Biometrie, p. 153).

The mark [2] stands for this setting: at a low dosage, footnote of Table I.
Setting [3] is: Rattus norvegicus, po, 1 h before 20 mg/kg indomethacine, 24 h.

With `CN1[C@@H]2CC[C@H]1C[C@@H](OC(=O)C(CO)c1ccccc1)C2` (stereo partly shown) [A, atropine sulfate, reference compound], the inhibition in vivo at 0.5 mg/kg with secretion in the stomach (Rattus norvegicus, ip, read-out: Inhibition of secretion in the stomach, % inhibition) was 100%. For the same compound, the “inhibition of the secretion in the stomach (in words)” value in the series with secretion in the stomach (setting [2]) is “strong inhibition”. Also, the inhibition in vivo at 12 mg/kg in series [1] (Rattus norvegicus, po, dosage 12 mg/kg p.o., 1 h before 20 mg/kg indomethacine, 24 h) amounted to 26%. In series [1] (setting [2]), the “effect on the ulcer (in words)” value is “does not have a sufficiently”.
Regarding `CC(=O)NCC(O)CN(C)c1ccc(Cl)cc1` (stereo not shown) [Compound 1, N1-acetyl-N2-methyl-N2-(4-chlorophenyl)-1,3-diaminopropan-2-ol], the inhibition in vivo at 300 mg/kg in the series with secretion in the stomach (Rattus norvegicus) was determined as 0%. For the same compound, the LD50 at 168 h in “in vivo” was 2260 mg/kg. Further, the inhibition in vivo at 150 mg/kg in series [1] (setting [3]) was found to be 33%.
For `CCCCCC(=O)NCC(O)CN(C)c1ccc(F)cc1` (stereo not shown) [Compound 2, N1-hexanoyl-N2-methyl-N2-(4-fluorophenyl)-1,3-diaminopropan-2-ol] the same measures were 0%, 4320 mg/kg and 44%.
For `CCCCCCCCCCCCCCCC(=O)NCC(O)CN(C)c1ccc(Cl)cc1` (stereo not shown) [Compound 3, N1-hexadecanoyl-N2-methyl-N2-(4-chlorophenyl)-1,3-diaminopropan-2-ol] the same measures were 0%, more than 6810 mg/kg and 40%.
For `CN(CC(O)CNC(=O)C1CC1)c1ccccc1` (stereo not shown) [Compound 4, N1-cyclopropylcarbonyl-N2-methyl-N2-phenyl-1,3-diaminopropan-2-ol] the same measures were 0%, more than 1470 mg/kg and 36%.
As for `CN(CC(O)CNC(=O)C1CCCCC1)c1ccccc1` (stereo not shown) [Compound 5, N1-cyclohexylcarbonyl-N2-methyl-N2-phenyl-1,3-diaminopropan-2-ol], the inhibition in vivo at 300 mg/kg with secretion in the stomach (Rattus norvegicus) is 0%. Also, the median lethal dose (LD50) at 168 h in “in vivo” is 3200 mg/kg. For the same compound, the inhibition in vivo at 150 mg/kg in series [1] (setting [3]) was 47%.
For `CN(CC(O)CNC(=O)C1CCCCC1)c1ccc(F)cc1` (stereo not shown) [Compound 6, N1-cyclohexylcarbonyl-N2-methyl-N2-(4-fluorophenyl)-1,3-diaminopropan-2-ol] the same measures were 0%, more than 1470 mg/kg and 40%.
In the series on secretion in the stomach (Rattus norvegicus), `CCCN(CC(O)CNC(=O)C1CCCCC1)c1ccccc1` (stereo not shown) [Compound 7, N1-cyclohexylcarbonyl-N2-propyl-N2-phenyl-1,3-diaminopropan-2-ol] displayed an inhibition in vivo at 300 mg/kg of 0%. In addition, in the series “in vivo”, the LD50 at 168 h was more than 1470 mg/kg. This compound also registered an inhibition in vivo at 150 mg/kg in series [1] (setting [3]) of 34%.
`CN(CC(O)CNC(=O)Cc1ccccc1)c1ccc(Cl)cc1` (stereo not shown) [Compound 8, N1-phenacetyl-N2-methyl-N2-(4-chlorophenyl)-1,3-diaminopropan-2-ol] yielded an inhibition in vivo at 300 mg/kg with secretion in the stomach (Rattus norvegicus) of 0%. In addition, the LD50 at 168 h in the series “in vivo” stood at 3860 mg/kg. In series [1] (setting [3]), this compound yielded an inhibition in vivo at 75 mg/kg of 26%.
In turn, `CN(CC(O)CNC(=O)C=Cc1ccccc1)c1ccc(Cl)cc1` (stereo not shown) [Compound 9, N1-cinnamoyl-N2-methyl-N2-(4-chlorophenyl)-1,3-diaminopropan-2-ol] had an inhibition in vivo at 300 mg/kg in the series with secretion in the stomach (Rattus norvegicus) of 0%. Moreover, in “in vivo”, the LD50 at 168 h is more than 6810 mg/kg. Moreover, the inhibition in vivo at 68 mg/kg in series [1] (setting [3]) was 32%.
Take `COc1ccc(C=CC(=O)NCC(O)CN(C)c2ccc(Cl)cc2)cc1OC` (stereo not shown) [Compound 10, N1-(3,4-dimethoxycinnamoyl)-N2-methyl-N2-(4-chlorophenyl)-1,3-diaminopropan-2-ol]: the inhibition in vivo at 300 mg/kg in the series on secretion in the stomach (Rattus norvegicus) stood at 0%. The median lethal dose (LD50) at 168 h in the series “in vivo” was more than 6810 mg/kg. Also, in series [1] (setting [3]), the inhibition in vivo at 75 mg/kg worked out at 32%.
In the series with secretion in the stomach (Rattus norvegicus), `CN(CC(O)CNC(=O)c1ccccn1)c1ccc(Cl)cc1` (stereo not shown) [Compound 11, N1-picolinoyl-N2-methyl-N2-(4-chlorophenyl)-1,3-diaminopropan-2-ol] registered an inhibition in vivo at 300 mg/kg of 0%. Besides, the 50% lethal dose (LD50) at 168 h in the series “in vivo” was determined as 3300 mg/kg. The same compound showed an inhibition in vivo at 68 mg/kg in series [1] (setting [3]) of 71%.
`CN(CC(O)CNC(=O)c1ccco1)c1ccc(Cl)c(Cl)c1` (stereo not shown) [Compound 12, N1-furoyl-N2-methyl-N2-(3,4-dichlorophenyl)-1,3-diaminopropan-2-ol] gave an inhibition in vivo at 300 mg/kg with secretion in the stomach (Rattus norvegicus) of 0%. Also, the LD50 at 168 h in “in vivo” is more than 1470 mg/kg. Also, the inhibition in vivo at 75 mg/kg in series [1] (setting [3]) worked out at 29%.
For `COCCN(CC(O)CNC(=O)c1ccco1)c1ccc(Cl)cc1` (stereo not shown) [Compound 13, N1-furoyl-N2-methoxyethyl-N2-(4-chlorophenyl)-1,3-diaminopropan-2-ol] the same measures were 0%, more than 1470 mg/kg and 35%.
`COc1ccc(C(=O)NCC(O)CNc2ccccc2Cl)cc1OC` (stereo not shown) [Compound 14, N1-(3,4-dimethoxybenzoyl)-N2-(2-chlorophenyl)-1,3-diaminopropan-2-ol] returned an inhibition in vivo at 300 mg/kg with secretion in the stomach (Rattus norvegicus) of 0%. Further, the 50% lethal dose (LD50) at 168 h in “in vivo” is more than 6700 mg/kg. In addition, the inhibition in vivo at 75 mg/kg in series [1] (setting [3]) was found to be 33%.
For `COc1ccc(C(=O)NCC(O)CN(C)c2ccc(F)cc2)cc1OC` (stereo not shown) [Compound 15, N1-(3,4-dimethoxybenzoyl)-N2-methyl-N2-(4-fluorophenyl)-1,3-diaminopropan-2-ol] the same measures were 0%, more than 6810 mg/kg and 32%.
For `COc1ccc(C(=O)NCC(O)CN(C)c2ccc(Cl)c(Cl)c2)cc1OC` (stereo not shown) [Compound 16, N1-(3,4-dimethoxybenzoyl)-N2-methyl-N2-(3,4-dichlorophenyl)-1,3-diaminopropan-2-ol], the inhibition in vivo at 300 mg/kg in the series on secretion in the stomach (Rattus norvegicus) is 0%. Moreover, the median lethal dose (LD50) at 168 h in “in vivo” is more than 6810 mg/kg. In addition, the inhibition in vivo at 75 mg/kg in series [1] (setting [3]) is 38%.
For `CCCN(CC(O)CNC(=O)c1ccc(OC)c(OC)c1)c1ccc(Cl)cc1` (stereo not shown) [Compound 17, N1-(3,4-dimethoxybenzoyl)-N2-propyl-N2-(4-chlorophenyl)-1,3-diaminopropan-2-ol] the same measures were 0%, more than 6810 mg/kg and 34%.
For `CN(CC(O)CNC(=O)c1ccccc1F)c1ccc(Cl)c(Cl)c1` (stereo not shown) [Compound 18, N1-(2-fluorobenzoyl)-N2-methyl-N2-(3,4-dichlorophenyl)-1,3-diaminopropan-2-ol] the same measures were 0%, more than 1470 mg/kg and 33%.
For `CC(C)c1ccc(N(C)CC(O)CNC(=O)c2ccco2)cc1` (stereo not shown) [Compound 19, N1-furoyl-N2-methyl-N2-(4-isopropylphenyl)-1,3-diaminopropan-2-ol] the same measures were 0%, more than 1470 mg/kg and 31%.

The values are drawn from US4191770A, “N1 -acyl-N2 -phenyldiaminopropanols and pharmaceutical compositions thereof” (Kali-Chemie Pharma GmbH, priority 1977, dated 1980).
